Results reported in paper PMC8041284, “Tunable Methacrylamides for Covalent Ligand Directed Release Chemistry” (Journal of the American Chemical Society, 2021).
Where two headings read alike, the source gives them in different places. *1 amine or outer side, *2 acyl side, *3 side chain or, on linkers, in order; H or OH if unused. Where a SMILES comes first, the peptide text is derived from it. Bridges are numbered along the chain shown (N, C = ends). [ ]: non-standard residue; d: D form. The star is where a group is joined. hTyr(3S-OH,4S-OH,3'-OSO3H) = N[C@H](C(=O)O)[C@H](O)[C@@H](O)c1ccc(O)c(OS(=O)(=O)O)c1; Orn(4R-OH,5R-OH) = O=C([C@H](C[C@@H](O)[C@@H](O)N[*:3])N[*:1])[*:2]; Pro(3S-OH,4S-Me) = C[C@H]1CN[C@H](C(=O)O)[C@H]1O; X1 = CCCCCOc1ccc(-c2cc(-c3ccc(C(=O)*)cc3)no2)cc1; Gln(3R-OH) = NC(=O)C[C@@H](O)[C@H](N)C(=O)O; Hyp = O=C(O)[C@@H]1C[C@@H](O)CN1

Molecular target: BTK (Homo sapiens, UniProt Q06187)
Assay: biochemical
[1] = read-out: BTK inhibition (%), 0.75 uM BTK, […] probe 3l, 15 min preincubation

BTK, sequence (Q06187 402-655 limits assumed): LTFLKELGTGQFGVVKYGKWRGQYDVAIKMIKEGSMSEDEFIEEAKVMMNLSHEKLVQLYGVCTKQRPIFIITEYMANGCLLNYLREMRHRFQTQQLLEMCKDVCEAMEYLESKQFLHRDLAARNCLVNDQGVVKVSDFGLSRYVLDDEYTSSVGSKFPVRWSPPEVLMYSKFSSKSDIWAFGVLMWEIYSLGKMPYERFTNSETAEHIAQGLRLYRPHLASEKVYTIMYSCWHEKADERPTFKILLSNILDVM

Row | Compound | inhibition at 10 µM [1] | inhibition at 10 µM (read-out: BTK inhibition (%))
1 | CN1CCN(c2nc3ccccc3nc2Cl)CC1 [PCM-0095510] | -6.2% | 
2 | Cc1cnc(C(=O)NCCc2ccc(S(=O)(=O)NC(=O)NC3CCCCC3)cc2)cn1 [PCM-0065278] | 13.2% | 
3 | CCNC(=O)Nc1ccc(-c2nc3c(c(N4CCOC[C@@H]4C)n2)CCN(C2COC2)C3)cc1 [PCM-0095629] | 3.4% | 
4 | c1nc2nc(Nc3ccc(N4CCOCC4)cc3)nc(NC3CCCCC3)c2[nH]1 [PCM-0215406] | 101% | 
5 | CCC(CC)CC1(C(=O)Nc2ccccc2SC(=O)C(C)C)CCCCC1 [PCM-0095336] | 6.2% | 
6 | COc1ccc(NS(=O)(=O)c2sc3ccc(Cl)cc3c2C)cc1N1CCNCC1 [PCM-0095497] | -35% | 
7 | Cc1cc(C)n(C)n1 [PCM-0215908] | -6.9% | 
8 | CCCOC(C(=O)OC1CCN(C)CC1)(c1ccccc1)c1ccccc1 [PCM-0215115] | -24.1% | 
9 | CC(=O)[C@@]1(O)CC[C@H]2[C@@H]3C[C@H](C)C4=CC(=O)CC[C@]4(C)[C@H]3CC[C@@]21C [PCM-0214898] | -7.8% | 
10 | O=C1CN2Cc3c(ccc(Cl)c3Cl)N=C2N1 [PCM-0090482] | -15.2% | 
11 | COc1cc2c(c(O)c1OC)-c1c(cc(OC)c(OC)c1OC)C[C@@H](C)[C@@H](C)C2 [PCM-0216483] | 23.9% | 
12 | CCc1ccc(-c2nc(CSCC(=O)NCCc3ccccc3)c(C)o2)cc1 [PCM-0215904] | -4.6% | 
13 | CCCCCOc1ccc(-c2cc(-c3ccc(C(=O)N[C@H]4C[C@@H](O)[C@@H](O)NC(=O)[C@@H]5[C@@H](O)[C@@H](C)CN5C(=O)[C@H]([C@H](O)CC(N)=O)NC(=O)[C@H]([C@H](O)[C@@H](O)c5ccc(O)c(OS(=O)(=O)O)c5)NC(=O)[C@@H]5C[C@@H](O)CN5C(=O)[C@H]([C@@H](C)O)NC4=O)cc3)no2)cc1 [PCM-0215341] (X1-[Orn(4R-OH,5R-OH)]T[Hyp][hTyr(3S-OH,4S-OH,3'-OSO3H)][Gln(3R-OH)][Pro(3S-OH,4S-Me)]; lactam 1-C) | 3.4% | 
14 | CCN[C@H]1C[C@H](C)S(=O)(=O)c2sc(S(N)(=O)=O)cc21 [PCM-0086331] | 10.2% | 
15 | CNc1nc(Nc2cnn([C@H]3CCN(C4COC4)C[C@@H]3F)c2Cl)ncc1C(F)(F)F [PCM-0215360] | 0% | 
16 | CN1CCN(CCCN2c3ccccc3Sc3ccc(C(F)(F)F)cc32)CC1 [PCM-0064852] | -4.7% | 
17 | Cc1cnc(C(=O)N[C@H]2CCCCC/C=C\[C@@H]3C[C@@]3(C(=O)NS(=O)(=O)C3CC3)NC(=O)[C@@H]3C[C@@H](Oc4nc5ccccc5c5ccccc45)CN3C2=O)cn1 [PCM-0216057] | 53.3% | 
18 | Cc1cnc(-c2cc(N3CCN(C(=O)CCS(C)(=O)=O)CC3)ncc2Cl)c(C)c1 [PCM-0095343] | 7.8% | 
19 | Oc1ccc2ccccc2c1SSc1c(O)ccc2ccccc12 [PCM-0065009] | 17.2% | 
20 | O=Cc1ccccc1 [PCM-0216202] | -2.3% | 
21 | O=c1c2cc(O)c(O)cc2oc2cc(O)c([C@@H]3O[C@H](CO)[C@@H](O)[C@H](O)[C@H]3O)c(O)c12 [PCM-0215004] | -14.8% | 
22 | O=C(/C=C\n1cnc(-c2cc(C(F)(F)F)cc(C(F)(F)F)c2)n1)N1CC(F)(F)C1 [PCM-0095738] | -16.2% | 

Row | Compound | inhibition at 10 µM [1] | inhibition at 10 µM (read-out: BTK inhibition (%))
23 | O=C1CCc2ccc(OCCCCN3CCN(c4cccc(Cl)c4Cl)CC3)cc2N1 [PCM-0086268] | -10.9% | 
24 | NC1(Cc2ccc(Cl)cc2)CCN(c2ncnc3[nH]ccc23)CC1 [PCM-0095516] | 13.8% | 
25 | CN(C)CCC(c1ccc(Br)cc1)c1ccccn1 (stereo not drawn) [PCM-0064576] | -19.3% | 
26 | C[C@@H]1O[C@H]2O[C@H]3[C@@H](OC[C@H](O)[C@@H]3O)OC(=O)[C@]34CCC(C)(C)C[C@H]3C3=CC[C@H]5[C@@]6(C)C[C@H](O)[C@H](O[C@@H]7O[C@H](CO)[C@@H](O)[C@H](O)[C@H]7O[C@@H]7OC[C@H](OC(=O)C[C@](C)(O)CC(=O)O[C@@H]1[C@@H](O[C@@H]1OC[C@@H](O)[C@H](O)[C@H]1O)[C@H]2O)[C@H](O)[C@H]7O)[C@@](C)(CO)[C@@H]6CC[C@@]5(C)[C@]3(C)CC4 [PCM-0214951] | 6.2% | 
27 | C=C[C@H]1CN2CC[C@H]1C[C@H]2[C@H](O)c1ccnc2ccccc12 [PCM-0094829] | -10.9% | 
28 | OCc1ccc(O[C@@H]2O[C@H](CO)[C@@H](O)[C@H](O)[C@H]2O)cc1 [PCM-0094551] | 17.9% | 
29 | C[C@]12CC[C@H](O)CC1=CC[C@@H]1[C@@H]2CC[C@]2(C)C(=O)CC[C@@H]12 [PCM-0214686] | -24.9% | 
30 | COc1cc2c(cc1OC)[C@@H](Cc1ccc(Oc3cc(C[C@@H]4c5cc(OC)c(OC)cc5CCN4C)ccc3O)cc1)N(C)CC2 [PCM-0216529] | -9.3% | 
31 | COc1ccc(C=O)c(O)c1 [PCM-0216133] | 5.4% | 
32 | CN(CC(=O)O)C(=N)N [PCM-0216212] | -30.6% | 
33 | CCC(C)(Oc1ccc(C2(c3ccc(OC(C)(CC)C(=O)O)cc3)CCCCC2)cc1)C(=O)O (stereo not drawn) [PCM-0095329] | 15.6% | 
34 | C[C@H](CC[C@@H](O[C@@H]1O[C@H](CO[C@@H]2O[C@H](CO)[C@@H](O)[C@H](O)[C@H]2O)[C@@H](O)[C@H](O)[C@H]1O[C@@H]1O[C@H](CO)[C@@H](O)[C@H](O)[C@H]1O)C(C)(C)O)[C@H]1CC[C@@]2(C)[C@@H]3CC=C4[C@@H](CC[C@H](O[C@@H]5O[C@H](CO[C@@H]6O[C@H](CO)[C@@H](O)[C@H](O)[C@H]6O)[C@@H](O)[C@H](O)[C@H]5O)C4(C)C)[C@]3(C)[C@H](O)C[C@]12C [PCM-0214952] | -2.3% | 
35 | COC(=O)[C@H](CC(C)C)NC(=O)c1ccc(NC[C@@H](N)CS)cc1-c1cccc2ccccc12 [PCM-0215717] | -79.5% | 
36 | O=c1[nH]c(=O)n([C@H]2C[C@H](O)[C@@H](CO)O2)cc1/C=C/Br [PCM-0215082] | 7.7% | 
37 | C[C@@]12C[C@@H](c3ccoc3)OC(=O)[C@@H]1CC[C@]1(C)[C@H]2[C@@H]2C=C[C@@]1(O)C(=O)O2 [PCM-0216442] |  | 0%
38 | CO[C@H]1C[C@@H]2CC[C@@H](C)[C@@](O)(O2)C(=O)C(=O)N2CCCC[C@H]2C(=O)O[C@H]([C@H](C)C[C@@H]2CC[C@@H](OCCO)[C@H](OC)C2)CC(=O)[C@H](C)/C=C(\C)[C@@H](O)[C@@H](OC)C(=O)[C@H](C)C[C@H](C)/C=C/C=C/C=C/1C [PCM-0214563] | -12.4% | 
39 | CN[C@@H]1[C@@H](O)[C@@H](O[C@@H]2[C@@H](O)[C@H](O[C@H]3OC(CN)=CC[C@H]3N)[C@@H](N)C[C@H]2N)OC[C@]1(C)O [PCM-0215656] | 28.9% | 
40 | CC1(C)CC[C@]2(C(=O)O)CC[C@]3(C)C(=CC[C@@H]4[C@@]5(C)C[C@@H](O)[C@H](O)C(C)(C)[C@@H]5CC[C@]43C)[C@@H]2C1 [PCM-0216611] | 20.1% | 
41 | c1ccc2c(CC3=NCCN3)cccc2c1 [PCM-0085846] | -13.2% | 
42 | CC(COc1ccccc1)N(CCCl)Cc1ccccc1 (stereo not drawn) [PCM-0086553] | 17.1% | 
43 | COc1ccc(-c2oc3c(CC=C(C)C)c(O[C@@H]4C[C@H](CO)[C@@H](O)[C@H](O)[C@H]4O)cc(O)c3c(=O)c2O[C@@H]2O[C@@H](C)[C@H](O)[C@@H](O)[C@H]2O[C@@H]2O[C@H](CO)[C@@H](O)[C@H](O)[C@H]2O)cc1 [PCM-0216510] | -15.4% | 

Further lines, with some results ahead:

Row | inhibition at 10 µM [1] | Compound | inhibition at 10 µM (read-out: BTK inhibition (%))
44 | -5.4% | Cc1ncc([N+](=O)[O-])n1CCO [PCM-0085759] | 
45 | 5.4% | CCn1cc(C(=O)O)c(=O)c2ccc(C)nc21 [PCM-0012961] | 
46 | -21% | Cc1noc(-c2ccc(CSCCC(=O)O)cc2)c1NC(=O)OC(C)c1ccccc1Cl (stereo not drawn) [PCM-0094905] | 
47 | -20% | C[C@@]1(F)[C@H](O)[C@@H](CO)O[C@H]1n1ccc(=O)[nH]c1=O [PCM-0216055] | 
48 | 90.3% | C=CC(=O)Nc1cccc(Nc2nc(Nc3ccc(OCCOC)cc3)ncc2F)c1 [PCM-0095787] | 
49 | 15.4% | C[C@H](NC(=O)CCC(F)(F)F)C(=O)N[C@@H]1C(=O)N(CCO)c2ncccc2-c2ccccc21 [PCM-0215760] | 
50 | 10.1% | O=c1c(O)c(-c2ccc(O)cc2O)oc2cc(O)cc(O)c12 [PCM-0065541] | 
51 | 0.7% | O=c1c2ccccc2nc2n1CCc1c-2[nH]c2ccccc12 [PCM-0065551] | 
52 | -8.3% | CC(C)n1ncnc1-c1cn2c(n1)-c1ccc(O[C@@H](C)C(N)=O)cc1OCC2 [PCM-0215832] | 
53 | 9.3% | CO/N=C(\C(=O)N[C@@H]1C(=O)N2C(C(=O)[O-])=C(C[n+]3cccc4c3CCCC4)CS[C@H]12)c1csc(N)n1 [PCM-0216083] | 
54 | -0.8% | N#CC(c1ccc(Cl)cc1)c1c(Cl)cc(-n2ncc(=O)[nH]c2=O)cc1Cl (stereo not drawn) [PCM-0086206] | 
55 | 23.4% | CNC(=O)CN1CCC(Oc2cc3c(Nc4cccc(Cl)c4F)ncnc3cc2OC)CC1 [PCM-0095236] | 
56 | -3.1% | COc1cc(-c2cn(C)c(=O)c3cnccc23)cc(OC)c1CN(C)C [PCM-0215650] | 
57 | 32.4% | O=c1oc2cc(O)ccc2c2ccc(O)cc12 [PCM-0216079] | 
58 | 36.6% | Cc1ccc(Nc2ncc3c(n2)N(C)C(=O)N(c2cc(NC(=O)c4cccc(C(F)(F)F)c4)ccc2C)C3)cn1 [PCM-0215589] | 
59 | -10.9% | CCCc1nc(C)c2c(=O)[nH]c(-c3cc(S(=O)(=O)N4CCN(CC)CC4)ccc3OCC)nn12 [PCM-0086229] | 
60 | -2.3% | Cc1cc(=O)oc2cc(O)ccc12 [PCM-0011565] | 
61 | -3.1% | COc1c(O[C@@H]2O[C@H](CO)[C@@H](O)[C@H](O)[C@H]2O)cc2occ(-c3ccc(O)cc3)c(=O)c2c1O [PCM-0215052] | 
62 | 7.6% | Cn1c(=O)c(F)c(Nc2ccc(I)cc2F)c2c(=O)n(C[C@@H](O)CO)cnc21 [PCM-0095463] | 
63 | -21.6% | C[C@H]1c2cccc(O)c2C(O)=C2C(=O)[C@]3(O)C(O)=C(C(N)=O)C(=O)[C@@H](N(C)C)[C@@H]3[C@@H](O)[C@@H]21 [PCM-0215985] | 
64 | -40.5% | COc1c(N2CCNC(C)C2)c(F)cc2c(=O)c(C(=O)O)cn(C3CC3)c12 (stereo not drawn) [PCM-0086315] | 
65 | 41.7% | Cc1cc(C)c(-c2csc(NC(=O)c3ccccc3)n2)c(C)c1 [PCM-0095756] | 
66 | -20.2% | Cn1c(N2CCCCS2(=O)=O)nc(C(=O)NCc2ccc(F)cc2)c(O)c1=O [PCM-0094999] | 
